In patent publication US10519152B2, “Compounds and their use in treating cancer” (AstraZeneca AB, priority 2017, dated 2019):

Biological target: T1, Estrogen Receptor (ERα) in MCF-7 human ductal carcinoma breast cell line (Homo sapiens, UniProt P03372)
T1 construct: endogenous in cells; host or cells: MCF-7
T1 sequence (P03372 1-595): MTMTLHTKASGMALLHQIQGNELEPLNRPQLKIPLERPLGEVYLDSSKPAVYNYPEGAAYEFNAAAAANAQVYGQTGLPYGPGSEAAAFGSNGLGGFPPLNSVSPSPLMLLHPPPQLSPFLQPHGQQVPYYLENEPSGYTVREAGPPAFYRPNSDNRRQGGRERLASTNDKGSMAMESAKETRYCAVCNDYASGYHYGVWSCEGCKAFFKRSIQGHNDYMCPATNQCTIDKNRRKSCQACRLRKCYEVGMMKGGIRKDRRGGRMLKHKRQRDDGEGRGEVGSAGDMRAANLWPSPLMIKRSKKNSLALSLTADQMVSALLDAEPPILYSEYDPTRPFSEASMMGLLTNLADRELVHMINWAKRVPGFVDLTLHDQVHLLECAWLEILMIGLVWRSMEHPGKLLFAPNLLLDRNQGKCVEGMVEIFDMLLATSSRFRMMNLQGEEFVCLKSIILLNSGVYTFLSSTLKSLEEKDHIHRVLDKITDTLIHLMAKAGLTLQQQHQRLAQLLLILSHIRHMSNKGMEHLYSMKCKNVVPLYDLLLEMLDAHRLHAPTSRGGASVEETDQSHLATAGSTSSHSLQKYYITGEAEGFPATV
Test: MCF-7 ER degradation assay (cell based immuno-fluorescence)
Details: MCF-7 cells; for ER degradation ≥ 90% at 0.3 μM: ER degradation by fulvestrant at 0.3 μM is defined as 100%; for DC50: 18-22 hours incubation, 50% reduction of ERα expression, single experiment or average of two or more, read-out: MCF-7 ER degradation IC50
In short: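 MCF-7 human ductal carcinoma breast cells were seeded at 3.75×10^4 cells per mL (40 μL per well) in 384 well plates with phenol red free DMEM containing 2 mM L-Glutamine and 5% (v/v) Charcoal/Dextran treated foetal calf serum. After overnight culture, compounds were acoustically dispensed, incubated 18-22 hours, then cells were formaldehyde-fixed and immunostained for ERα.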

Structure (SMILES): Cc1ncsc1-c1ccc(CNC(=O)C2CC(O)CN2C(=O)C(NC(=O)COCCOc2cc(F)c(C3c4[nH]c5ccccc5c4CC(C)N3CC(C)(C)F)c(F)c2)C(C)(C)C)cc1 [Example 40, (2S,4R)-1-((S)-2-(2-(2-(3,5-Difluoro-4-((1R,3R)-2-(2-fluoro-2-methylpropyl)-3-methyl-2,3,49-tetrahydro-1H-pyrido[3,4-b]indol-1-yl)phenoxy)ethoxy)acetamido)-3,3-dimethylbutanoyl)-4-hydroxy-N-(4-(4-methylthiazol-5-yl)benzyl)pyrrolidine-2-carboxamide]
- ER degradation ≥ 90% at 0.3 μM: •
- DC50: 0.6 nM

Structure (SMILES): Cc1ncsc1-c1ccc(CNC(=O)[C@@H]2C[C@@H](O)CN2C(=O)[C@@H](NC(=O)COCCCCCN(CCOc2cc(F)c([C@@H]3c4[nH]c5ccccc5c4C[C@@H](C)N3CC(C)(C)F)c(F)c2)C(=O)OCc2ccccc2)C(C)(C)C)cc1 [Example 45, Benzyl (2-(3,5-difluoro-4-((1R,3R)-2-(2-fluoro-2-methylpropyl)-3-methyl-2,3,4,9-tetrahydro-1H-pyrido[3,4-b]indol-1-yl)phenoxy)ethyl)(5-(2-(((S)-1-((2S,4R)-4-hydroxy-2-((4-(4-methylthiazol-5-yl)benzyl)carbamoyl)pyrrolidin-1-yl)-3,3-dimethyl-1-oxobutan-2-yl)amino)-2-oxoethoxy)pentyl)carbamate]
- ER degradation ≥ 90% at 0.3 μM: ••
- DC50: 12 nM

Structure (SMILES): Cc1ncsc1-c1ccc(CNC(=O)[C@@H]2C[C@@H](O)CN2C(=O)[C@@H](NC(=O)COCCCC2CN(CCOc3cc(F)c([C@@H]4c5[nH]c6ccccc6c5C[C@@H](C)N4CC(C)(C)F)c(F)c3)C2)C(C)(C)C)cc1 [Example 47, (2S,4R)-1-((S)-2-(2-(3-(1-(2-(3,5-difluoro-4-((1R,3R)-2-(2-fluoro-2-methylpropyl)-3-methyl-2,3,4,9-tetrahydro-1H-pyrido[3,4-b]indol-1-yl)phenoxy)ethyl)azetidin-3-yl)propoxy)acetamido)-3,3-dimethylbutanoyl)-4-hydroxy-N-(4-(4-methylthiazol-5-yl)benzyl)pyrrolidine-2-carboxamide]
- ER degradation ≥ 90% at 0.3 μM: •
- DC50: 0.6 nM

Structure (SMILES): Cc1ncsc1-c1ccc(CNC(=O)[C@@H]2C[C@@H](O)CN2C(=O)[C@@H](NC(=O)COCCCCCNCCOc2cc(F)c([C@@H]3c4[nH]c5ccccc5c4C[C@@H](C)N3CC(C)(C)F)c(F)c2)C(C)(C)C)cc1 [Example 48, (2S,4R)-1-((S)-2-(2-((5-((2-(3,5-difluoro-4-((1R,3R)-2-(2-fluoro-2-methylpropyl)-3-methyl-2,3,4,9-tetrahydro-1H-pyrido[3,4-b]indol-1-yl)phenoxy)ethyl)amino)pentyl)oxy)acetamido)-3,3-dimethylbutanoyl)-4-hydroxy-N-(4-(4-methylthiazol-5-yl)benzyl)pyrrolidine-2-carboxamide]
- ER degradation ≥ 90% at 0.3 μM: •
- DC50: 1.8 nM

Structure (SMILES): Cc1ncsc1-c1ccc(CNC(=O)[C@@H]2C[C@@H](O)CN2C(=O)[C@@H](NC(=O)COCCCCCN(C)CCOc2cc(F)c([C@@H]3c4[nH]c5ccccc5c4C[C@@H](C)N3CC(C)(C)F)c(F)c2)C(C)(C)C)cc1 [Example 49, (2S,4R)-1-((S)-2-(2-((5-((2-(3,5-difluoro-4-((1R,3R)-2-(2-fluoro-2-methylpropyl)-3-methyl-2,3,4,9-tetrahydro-1H-pyrido[3,4-b]indol-1-yl)phenoxy)ethyl)(methyl)amino)pentyl)oxy)acetamido)-3,3-dimethylbutanoyl)-4-hydroxy-N-(4-(4-methylthiazol-5-yl)benzyl)pyrrolidine-2-carboxamide]
- ER degradation ≥ 90% at 0.3 μM: •
- DC50: 0.9 nM

Structure (SMILES): Cc1ncsc1-c1ccc(CNC(=O)[C@@H]2C[C@@H](O)CN2C(=O)[C@@H](NC(=O)COCCCCCCOc2cc(F)c([C@@H]3c4[nH]c5ccccc5c4C[C@@H](C)N3CC(C)(C)F)c(F)c2)C(C)(C)C)cc1 [Example 51, (2S,4R)-1-((S)-2-(2-((6-(3,5-difluoro-4-((1R,3R)-2-(2-fluoro-2-methylpropyl)-3-methyl-2,3,4,9-tetrahydro-1H-pyrido[3,4-b]indol-1-yl)phenoxy)hexyl)oxy)acetamido)-3,3-dimethylbutanoyl)-4-hydroxy-N-(4-(4-methylthiazol-5-yl)benzyl)pyrrolidine-2-carboxamide]
- ER degradation ≥ 90% at 0.3 μM: •
- DC50: 6.8 nM

Structure (SMILES): Cc1ncsc1-c1ccc(CNC(=O)[C@@H]2C[C@@H](O)CN2C(=O)[C@@H](NC(=O)COCCc2ccc(COc3cc(F)c([C@@H]4c5[nH]c6ccccc6c5C[C@@H](C)N4CC(C)(C)F)c(F)c3)cc2)C(C)(C)C)cc1 [Example 53, (2S,4R)-1-((S)-2-(2-(4-((3,5-difluoro-4-((1R,3R)-2-(2-fluoro-2-methylpropyl)-3-methyl-2,3,4,9-tetrahydro-1H-pyrido[3,4-b]indol-1-yl)phenoxy)methyl)phenethoxy)acetamido)-3,3-dimethylbutanoyl)-4-hydroxy-N-(4-(4-methylthiazol-5-yl)benzyl)pyrrolidine-2-carboxamide]
- ER degradation ≥ 90% at 0.3 μM: •
- DC50: 3.5 nM

Structure (SMILES): Cc1ncsc1-c1ccc(CNC(=O)[C@@H]2C[C@@H](O)CN2C(=O)[C@@H](NC(=O)COCCOCCOCCOCCOCCOCC(=O)Nc2ccc([C@@H]3c4[nH]c5ccccc5c4C[C@@H](C)N3CC(C)(C)F)cc2)C(C)(C)C)cc1 [Example 54, N^1-(4-((1R,3R)-2-(2-fluoro-2-methylpropyl)-3-methyl-2,3,4,9-tetrahydro-1H-pyrido[3,4-b]indol-1-yl)phenyl)-N^18—((S)-1-((2S,4R)-4-hydroxy-2-(4-(4-methylthiazol-5-yl)benzylcarbamoyl)pyrrolidin-1-yl)-3,3-dimethyl-1-oxobutan-2-yl)-2,5,8,11,14,17-hexaoxaoctadecane-1,18-dicarboxamide, Trifluoroacetic Acid]
- ER degradation ≥ 90% at 0.3 μM: ••
- DC50: 1.7 nM

Structure (SMILES): Cc1ncsc1-c1ccc(CNC(=O)[C@@H]2C[C@@H](O)CN2C(=O)[C@@H](NC(=O)COCCOCCOCCOc2cc(F)c([C@@H]3c4[nH]c5ccccc5c4C[C@@H](C)N3C[C@H](C)CO)c(F)c2)C(C)(C)C)cc1 [Example 101, (2S,4R)-1-((S)-2-(tert-butyl)-14-(3,5-difluoro-4-((1R,3R)-2-((S)-3-hydroxy-2-methylpropyl)-3-methyl-2,3,4,9-tetrahydro-1H-pyrido[3,4-b]indol-1-yl)phenoxy)-4-oxo-6,9,12-trioxa-3-azatetradecanoyl)-4-hydroxy-N-(4-(4-methylthiazol-5-yl)benzyl)pyrrolidine-2-carboxamide]
- ER degradation ≥ 90% at 0.3 μM: •
- DC50: 1.8 nM

Structure (SMILES): Cc1ncsc1-c1ccc([C@@H](CN)NC(=O)[C@@H]2C[C@@H](O)CN2C(=O)[C@@H](NC(=O)COCCOCCOCCOc2cc(F)c([C@@H]3c4[nH]c5ccccc5c4C[C@@H](C)N3CC(C)(C)F)c(F)c2)C(C)(C)C)cc1 [Example 106, (2S,4R)—N-[(1S)-2-amino-1-[4-(4-methylthiazol-5-yl)phenyl]ethyl]-1-[(2S)-2-[[2-[2-[2-[2-[3,5-difluoro-4-[(1R,3R)-2-(2-fluoro-2-methyl-propyl)-3-methyl-1,3,4,9-tetrahydropyrido[3,4-b]indol-1-yl]phenoxy]ethoxy]ethoxy]ethoxy]acetyl]amino]-3,3-dimethyl-butanoyl]-4-hydroxy-pyrrolidine-2-carboxamide]
- ER degradation ≥ 90% at 0.3 μM: •
- DC50: 0.9 nM
